Legend:
human Slack = target: T1, human Slack (Homo sapiens, UniProt Q5JUK3); assay: Whole-cell patch-clamp recordings in HEK-Slack cells; assay type: cell-based
T1 construct: host or cells: HEK293
T1 sequence (Q5JUK3 1-1230): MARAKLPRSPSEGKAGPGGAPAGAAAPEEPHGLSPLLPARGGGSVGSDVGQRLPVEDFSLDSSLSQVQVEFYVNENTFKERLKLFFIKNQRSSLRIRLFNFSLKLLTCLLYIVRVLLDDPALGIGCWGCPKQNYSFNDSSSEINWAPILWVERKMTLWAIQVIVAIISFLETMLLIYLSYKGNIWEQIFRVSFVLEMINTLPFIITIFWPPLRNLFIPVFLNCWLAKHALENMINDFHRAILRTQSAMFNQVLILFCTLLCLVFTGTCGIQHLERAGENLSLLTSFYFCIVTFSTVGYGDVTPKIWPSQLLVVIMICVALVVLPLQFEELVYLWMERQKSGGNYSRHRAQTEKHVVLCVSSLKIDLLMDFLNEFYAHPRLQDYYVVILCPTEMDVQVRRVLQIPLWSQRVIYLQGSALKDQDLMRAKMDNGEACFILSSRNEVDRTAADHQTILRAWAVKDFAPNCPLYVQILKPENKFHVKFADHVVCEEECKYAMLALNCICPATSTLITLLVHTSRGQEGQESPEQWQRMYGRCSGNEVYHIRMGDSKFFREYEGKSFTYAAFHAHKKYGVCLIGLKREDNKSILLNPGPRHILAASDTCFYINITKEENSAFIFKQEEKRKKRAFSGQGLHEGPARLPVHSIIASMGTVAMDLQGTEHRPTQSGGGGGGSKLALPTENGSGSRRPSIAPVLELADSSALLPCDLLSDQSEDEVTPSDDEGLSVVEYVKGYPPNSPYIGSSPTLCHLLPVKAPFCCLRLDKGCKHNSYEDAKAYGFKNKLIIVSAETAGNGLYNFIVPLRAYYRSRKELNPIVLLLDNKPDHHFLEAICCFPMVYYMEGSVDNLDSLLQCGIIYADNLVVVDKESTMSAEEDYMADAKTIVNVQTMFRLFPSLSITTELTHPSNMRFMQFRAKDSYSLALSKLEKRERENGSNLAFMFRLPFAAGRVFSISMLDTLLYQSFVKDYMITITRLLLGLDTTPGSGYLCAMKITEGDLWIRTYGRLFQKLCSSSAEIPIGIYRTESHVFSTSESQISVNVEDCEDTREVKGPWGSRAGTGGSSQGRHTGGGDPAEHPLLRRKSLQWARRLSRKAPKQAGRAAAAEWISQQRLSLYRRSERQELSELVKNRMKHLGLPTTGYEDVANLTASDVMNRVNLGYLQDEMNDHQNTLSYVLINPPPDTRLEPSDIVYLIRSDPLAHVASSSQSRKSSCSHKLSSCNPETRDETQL
Description: Generally, in these experiments, HEK-Slack cells were plated onto poly-D-lysine-coated (100 μg/mL, Sigma Aldrich) coverslips 1 day before experiments and cultured in DMEM containing 10% FBS and 1% penicillin/streptomycin in 5% CO2 at 37° C. Whole-cell voltage clamp recordings were acquired using an EPC 9 amplifier combined with Patchmaster software (HEKA Electronics, Lambrecht/Pfalz, Germany). Currents were sampled at 20 kHz and filtered at 5 KHz. Data analysis was performed using the Fitmaster software (HEKA Electronics). Membrane potential was held at −70 mV and outward K^+ current (IK) was evoked by depolarizing steps (500 ms duration) ranging from −120 to +120 mV in increments of 20 mV. The pipette solution contained 140 mM KCl, 2 mM MgCl2, 5 mM EGTA, 10 mM HEPES, and was adjusted to pH 7.4 with KOH. The extracellular solution contained 140 mM NaCl, 5 mM KCl, 2 mM CaCl2), 2 mM MgCl2, 10 mM HEPES, and was adjusted to pH 7.4 with NaOH.
At a holding potential of −70 mV a series of 500 ms-long test pulses ranging from −120 to +120 mV in intervals of 20 mV were applied.
Fold increase values in patch-clamp experiments were determined by calculating […].

[1] = target: T2, norepinephrine transporter (NET) (Homo sapiens, UniProt P23975); assay: SafetyScreen44 binding; conditions: substantial = higher than 50%
T2 construct: Eurofins SafetyScreen44
T2 sequence (P23975 whole entry): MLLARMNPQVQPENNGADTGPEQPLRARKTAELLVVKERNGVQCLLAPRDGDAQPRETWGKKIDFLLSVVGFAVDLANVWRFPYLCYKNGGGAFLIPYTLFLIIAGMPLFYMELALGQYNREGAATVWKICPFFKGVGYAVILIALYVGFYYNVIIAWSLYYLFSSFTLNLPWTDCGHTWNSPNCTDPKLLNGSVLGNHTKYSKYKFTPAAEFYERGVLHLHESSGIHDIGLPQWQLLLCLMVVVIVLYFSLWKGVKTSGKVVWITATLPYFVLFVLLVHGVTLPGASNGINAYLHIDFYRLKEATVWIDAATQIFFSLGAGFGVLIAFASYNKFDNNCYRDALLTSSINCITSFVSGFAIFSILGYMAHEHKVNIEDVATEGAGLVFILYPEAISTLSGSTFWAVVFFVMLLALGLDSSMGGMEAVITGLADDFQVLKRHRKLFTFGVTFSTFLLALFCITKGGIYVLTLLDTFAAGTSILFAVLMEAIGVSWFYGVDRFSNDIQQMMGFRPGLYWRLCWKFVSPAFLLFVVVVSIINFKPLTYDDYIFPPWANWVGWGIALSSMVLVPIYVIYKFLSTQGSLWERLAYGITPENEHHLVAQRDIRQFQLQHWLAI

[2] = target: T3, short form of dopamine receptor D2 (D2S) (Homo sapiens, UniProt P14416); assay: SafetyScreen44 binding; conditions: 10 μM; substantial = higher than 50%
T3 construct: Eurofins SafetyScreen44
T3 sequence (P14416 1-414 isoform P14416-2): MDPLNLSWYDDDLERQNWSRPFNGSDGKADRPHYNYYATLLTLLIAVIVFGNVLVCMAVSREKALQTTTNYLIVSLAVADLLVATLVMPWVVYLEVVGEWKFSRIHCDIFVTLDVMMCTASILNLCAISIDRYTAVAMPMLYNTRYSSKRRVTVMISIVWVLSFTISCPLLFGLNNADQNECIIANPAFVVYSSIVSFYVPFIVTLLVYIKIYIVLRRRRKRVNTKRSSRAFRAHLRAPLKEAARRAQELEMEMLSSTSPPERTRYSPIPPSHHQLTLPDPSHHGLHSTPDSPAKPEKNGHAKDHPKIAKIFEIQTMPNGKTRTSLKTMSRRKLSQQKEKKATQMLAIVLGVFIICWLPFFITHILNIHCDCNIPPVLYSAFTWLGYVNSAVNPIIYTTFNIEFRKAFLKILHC
Description: (§1) Compound enzyme inhibition effect was calculated as a % inhibition of control enzyme activity. […] Measurements were performed in duplicate.

[3] = system: neuropathic pain behavior of mice; assay: Spared nerve injury (SNI) model of neuropathic pain; assay type: in vivo; conditions: i.p., 28 days after SNI surgery, assessed over 3 h
Description: FIG. 8: Compound 6 and Compound 10 inhibit histamine-independent acute itch behavior and neuropathic pain behavior. (A), (B), Motor function. […] Dotted lines indicate cutoff times. * p<0.05, *** p<0.001, Kruskal-Wallis test. (C)-(G), Acute itch behavior. Compound 6, Compound 10 or vehicle were i.p. administered and 15 min thereafter different pruritogens were s.c. administered into the nape of the neck and the number of scratching bouts was counted over 30 min. In each panel, the time course of scratching behavior is shown on the left and the sum of scratching bouts in 30 min is presented on the right. (C), Compound 6 and Compound 10 inhibited the scratching behavior induced by chloroquine in a dose-dependent manner. (D) Compound 6 inhibited the chloroquine-induced scratching behavior in WT mice but not in Slack^−/− littermates. (E) Compound 6 ameliorated the scratching behavior induced by SLIGRL, (F) but not by histamine. n=7-8 per group. […] Twenty-eight days thereafter, mechanical hypersensitivity of the affected hindpaw (determined using a Dynamic Plantar Aesthesiometer), which is indicated by decreased paw withdrawal latency time, was detected in all mice. Then Compound 10 or vehicle were i.p. administered and the mechanical sensitivity was assessed over 3 h. […]

[4] = target: T4, cannabinoid receptor 1 (CB1) (Homo sapiens, UniProt P21554); assay: SafetyScreen44 binding; conditions: 10 μM; substantial = higher than 50%
T4 construct: Eurofins SafetyScreen44
T4 sequence (P21554 whole entry): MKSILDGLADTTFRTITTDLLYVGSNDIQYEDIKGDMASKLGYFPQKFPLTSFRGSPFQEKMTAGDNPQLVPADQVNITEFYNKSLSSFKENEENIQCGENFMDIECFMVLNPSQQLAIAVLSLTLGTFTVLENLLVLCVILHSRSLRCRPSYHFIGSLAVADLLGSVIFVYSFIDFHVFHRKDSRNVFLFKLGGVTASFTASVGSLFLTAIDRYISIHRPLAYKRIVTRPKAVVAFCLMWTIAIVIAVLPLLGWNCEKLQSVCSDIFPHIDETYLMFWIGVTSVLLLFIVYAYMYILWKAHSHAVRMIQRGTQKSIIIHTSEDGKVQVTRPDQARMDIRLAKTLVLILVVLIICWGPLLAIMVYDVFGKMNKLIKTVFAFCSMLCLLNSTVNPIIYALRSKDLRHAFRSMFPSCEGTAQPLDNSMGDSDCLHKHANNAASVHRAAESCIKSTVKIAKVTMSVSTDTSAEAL
Description: as §1

SMILES: CN1CCCN(C2=Nc3ccccc3Oc3ccc(C(F)(F)F)cc32)CC1 [Compound 3, 11-(4-Methyl-1,4-diazepan-1-yl)-2-(trifluoromethyl)dibenzo[b,f][1,4]oxazepine]
- IK amplitude in comparison to vehicle (human Slack; 50 μM): all except Compound 3

SMILES: O=C(O)COCCN1CCN(C2=Nc3ccccc3Oc3ccc(Cl)cc32)CC1 [Compound 6, 2-(2-(4-(2-Chlorodibenzo[b,f][1,4]oxazepin-11-yl)piperazin-1-yl)ethoxy) acetic acid]
- binding inhibition, NET ([1]; 10 μM): substantial binding
- binding inhibition, D2S [2]: substantial binding

SMILES: O=c1nc(CN2CCN(C3=Nc4ccccc4Oc4ccc(Cl)cc43)CC2)[nH][nH]1 [Compound 10, 5-((4-(2-Chlorodibenzo[b,f][1,4]oxazepin-11-yl)piperazin-1-yl)methyl)-1,2-dihydro-3H-1,2,4-triazol-3-one]
- neuropathic pain behavior (mechanical hypersensitivity, paw withdrawal latency) [3]: inhibited the neuropathic pain behavior
- fold increase compared to baseline (human Slack; 25 μM): 7.74±1.525 fold
- fold increase compared to baseline (human Slack; 50 μM): 12.54±1.395 fold
- binding inhibition, CB1 [4]: substantial binding inhibition

SMILES: CN1CCN(C2=Nc3ccccc3Oc3ccc(Cl)cc32)CC1 [Loxapine, 2-chloro-11-(4-methylpiperazin-1-yl)dibenzo[b,f][1,4]oxazepine, reference compound]
- inhibition at 10 µM [1]: > 50%

Reference: patent publication US20260258003A1, “SLACK-ACTIVATING COMPOUNDS AND THEIR MEDICAL USE” (Johann Wolfgang Goethe-Universität Frankfurt am Main, priority 2023, published 2026)
